Test results reported in PMC6090556 (Neuron, 2018).
Like-named read-outs stand apart in the source and are kept apart here. Marks after values point to notes of the source that are not given here.

Tests used:
[1] = tested on: NMDARs in cultured cortical neurons; format: cell-based, rat; details: 400 μM DL-APV
[2] = tested on: NMDARs in cultured cortical neurons transfected with GFP alone (control); format: cell-based, rat
[3] = tested on: NMDARs in cultured cortical neurons transfected with GluN2C and GFP; format: cell-based, rat
[4] = biological target: NMDARs in cerebellar granule cells, wild type mice (Mus musculus, UniProt P35436+P35438+Q01098); format: cell-based
Chain of NMDARs in cerebellar granule cells, wild type mice (P35436 23-1464, other chains not shown): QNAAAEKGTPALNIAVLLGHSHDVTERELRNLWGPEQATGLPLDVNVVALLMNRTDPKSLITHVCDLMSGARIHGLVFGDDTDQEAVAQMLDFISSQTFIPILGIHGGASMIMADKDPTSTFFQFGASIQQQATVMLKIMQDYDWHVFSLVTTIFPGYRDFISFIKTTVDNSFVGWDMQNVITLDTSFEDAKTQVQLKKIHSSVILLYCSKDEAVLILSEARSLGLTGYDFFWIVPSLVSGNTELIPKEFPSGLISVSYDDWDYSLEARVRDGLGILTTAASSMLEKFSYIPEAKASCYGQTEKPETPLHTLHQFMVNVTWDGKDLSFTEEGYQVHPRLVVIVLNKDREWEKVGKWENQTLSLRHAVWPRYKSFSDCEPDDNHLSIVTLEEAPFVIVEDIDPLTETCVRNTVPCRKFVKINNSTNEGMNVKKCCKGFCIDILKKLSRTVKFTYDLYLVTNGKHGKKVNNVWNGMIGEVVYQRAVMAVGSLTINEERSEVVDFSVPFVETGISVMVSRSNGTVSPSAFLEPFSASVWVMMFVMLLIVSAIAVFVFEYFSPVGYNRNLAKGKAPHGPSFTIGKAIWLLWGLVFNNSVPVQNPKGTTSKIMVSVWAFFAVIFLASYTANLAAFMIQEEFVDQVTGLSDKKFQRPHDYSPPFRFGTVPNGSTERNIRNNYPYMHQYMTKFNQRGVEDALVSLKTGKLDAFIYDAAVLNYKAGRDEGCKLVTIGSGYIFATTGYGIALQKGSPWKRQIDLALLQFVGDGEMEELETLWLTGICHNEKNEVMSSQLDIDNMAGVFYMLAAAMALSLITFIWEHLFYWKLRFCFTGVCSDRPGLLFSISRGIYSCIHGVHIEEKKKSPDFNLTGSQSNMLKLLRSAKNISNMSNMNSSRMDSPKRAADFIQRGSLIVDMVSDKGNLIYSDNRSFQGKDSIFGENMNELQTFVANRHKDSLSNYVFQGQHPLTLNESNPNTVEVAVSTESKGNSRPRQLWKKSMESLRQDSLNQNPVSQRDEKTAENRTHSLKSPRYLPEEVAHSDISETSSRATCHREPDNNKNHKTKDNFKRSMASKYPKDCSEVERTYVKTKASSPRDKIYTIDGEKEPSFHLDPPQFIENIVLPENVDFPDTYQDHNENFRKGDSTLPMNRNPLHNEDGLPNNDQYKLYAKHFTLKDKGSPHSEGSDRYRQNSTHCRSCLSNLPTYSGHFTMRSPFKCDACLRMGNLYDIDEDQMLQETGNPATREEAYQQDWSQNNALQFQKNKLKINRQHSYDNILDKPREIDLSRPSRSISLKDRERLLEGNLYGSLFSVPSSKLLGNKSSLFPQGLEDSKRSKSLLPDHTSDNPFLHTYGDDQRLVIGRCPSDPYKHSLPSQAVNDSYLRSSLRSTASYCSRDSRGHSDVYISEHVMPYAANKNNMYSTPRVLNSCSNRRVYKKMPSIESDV
Chain of NMDARs in cerebellar granule cells, wild type mice (Q01098 20-1239, other chains not shown): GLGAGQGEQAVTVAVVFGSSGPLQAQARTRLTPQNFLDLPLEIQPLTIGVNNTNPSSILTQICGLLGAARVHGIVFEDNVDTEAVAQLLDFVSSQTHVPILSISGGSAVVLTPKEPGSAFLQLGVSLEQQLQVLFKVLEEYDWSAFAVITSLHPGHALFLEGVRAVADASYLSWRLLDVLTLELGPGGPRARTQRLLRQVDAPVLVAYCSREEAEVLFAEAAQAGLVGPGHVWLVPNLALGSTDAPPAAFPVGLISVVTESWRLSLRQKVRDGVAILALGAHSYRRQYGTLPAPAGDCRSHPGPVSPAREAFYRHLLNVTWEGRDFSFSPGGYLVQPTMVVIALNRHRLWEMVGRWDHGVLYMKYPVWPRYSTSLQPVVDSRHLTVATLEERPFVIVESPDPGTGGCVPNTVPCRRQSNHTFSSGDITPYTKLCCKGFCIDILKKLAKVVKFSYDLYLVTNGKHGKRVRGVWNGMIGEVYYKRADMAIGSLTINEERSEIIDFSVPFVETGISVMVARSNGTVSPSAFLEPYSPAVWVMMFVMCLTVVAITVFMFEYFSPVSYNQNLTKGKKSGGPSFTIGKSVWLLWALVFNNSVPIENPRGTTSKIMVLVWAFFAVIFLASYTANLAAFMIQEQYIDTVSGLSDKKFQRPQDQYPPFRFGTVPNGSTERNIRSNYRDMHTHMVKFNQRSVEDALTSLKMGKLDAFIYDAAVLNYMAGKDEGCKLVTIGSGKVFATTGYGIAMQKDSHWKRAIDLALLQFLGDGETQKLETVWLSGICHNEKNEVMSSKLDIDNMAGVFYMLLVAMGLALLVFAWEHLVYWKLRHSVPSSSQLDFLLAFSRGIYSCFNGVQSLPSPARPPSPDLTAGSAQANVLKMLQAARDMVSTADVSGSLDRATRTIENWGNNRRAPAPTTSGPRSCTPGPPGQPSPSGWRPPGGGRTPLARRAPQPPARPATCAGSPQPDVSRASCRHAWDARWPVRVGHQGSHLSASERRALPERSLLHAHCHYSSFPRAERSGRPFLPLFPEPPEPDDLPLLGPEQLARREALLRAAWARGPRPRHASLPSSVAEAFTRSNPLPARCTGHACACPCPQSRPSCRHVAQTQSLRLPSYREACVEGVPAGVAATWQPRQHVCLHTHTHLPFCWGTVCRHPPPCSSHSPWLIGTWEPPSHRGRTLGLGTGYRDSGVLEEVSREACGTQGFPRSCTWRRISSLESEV

[5] = biological target: GluN1/GluN2A (Rattus norvegicus, UniProt P35439+Q00959); details: 5 ms pulse of 1 mM glutamate, continuous 100 μM glycine, n=6
[6] = biological target: GluN1/GluN2C (Rattus norvegicus, UniProt P35439+Q00961); details: 5 ms pulse of 1 mM glutamate, continuous 100 μM glycine, n=8
[7] = biological target: NMDARs in cerebellar granule cells, Grin2A−/− mice (Mus musculus, UniProt P35438+Q01098); format: cell-based; details: 50 μM PYD-106, Grin2A−/− slices, n=8 animals
Chain of NMDARs in cerebellar granule cells, Grin2A−/− mice (Q01098 20-1239, other chains not shown): as above

[8] = biological target: NMDARs in cerebellar granule cells, Grin2C−/− mice (Mus musculus, UniProt P35436+P35438); format: cell-based; details: 50 μM PYD-106, Grin2C−/− slices, n=8 animals
[9] = tested on: GluN1/GluN2B/GluN2C receptors; assay: Two-electrode voltage-clamp recordings in Xenopus oocytes; format: cell-based, rat; details: Figure S1
[10] = biological target: NMDARs in cultured cortical neurons (Rattus norvegicus, UniProt P35439+Q00960); format: cell-based; details: spermine potentiation of native GluN2B-mediated current responses, n=3
[11] = biological target: GluN1/GluN2AC1/GluN2AC2 (Rattus norvegicus, UniProt P35439+Q00959); assay: Two-electrode voltage-clamp recordings in Xenopus oocytes
[12] = biological target: GluN1/GluN2AC1/GluN2CC2(NK) (Rattus norvegicus, UniProt P35439+Q00959+Q00961, N612K); assay: as above; format: cell-based; details: for GluN2AC1/GluN2CC2(NK) fitted response in saturating Zn2+ as percent of control: mean ± SEM; for IC50: read-out: GluN2AC1/GluN2CC2(NK) EC50 (95% CI), IC50 in text, Zn2+ inhibition
Chain of GluN1/GluN2AC1/GluN2CC2(NK) (Q00961 20-836 N612K, other chains not shown): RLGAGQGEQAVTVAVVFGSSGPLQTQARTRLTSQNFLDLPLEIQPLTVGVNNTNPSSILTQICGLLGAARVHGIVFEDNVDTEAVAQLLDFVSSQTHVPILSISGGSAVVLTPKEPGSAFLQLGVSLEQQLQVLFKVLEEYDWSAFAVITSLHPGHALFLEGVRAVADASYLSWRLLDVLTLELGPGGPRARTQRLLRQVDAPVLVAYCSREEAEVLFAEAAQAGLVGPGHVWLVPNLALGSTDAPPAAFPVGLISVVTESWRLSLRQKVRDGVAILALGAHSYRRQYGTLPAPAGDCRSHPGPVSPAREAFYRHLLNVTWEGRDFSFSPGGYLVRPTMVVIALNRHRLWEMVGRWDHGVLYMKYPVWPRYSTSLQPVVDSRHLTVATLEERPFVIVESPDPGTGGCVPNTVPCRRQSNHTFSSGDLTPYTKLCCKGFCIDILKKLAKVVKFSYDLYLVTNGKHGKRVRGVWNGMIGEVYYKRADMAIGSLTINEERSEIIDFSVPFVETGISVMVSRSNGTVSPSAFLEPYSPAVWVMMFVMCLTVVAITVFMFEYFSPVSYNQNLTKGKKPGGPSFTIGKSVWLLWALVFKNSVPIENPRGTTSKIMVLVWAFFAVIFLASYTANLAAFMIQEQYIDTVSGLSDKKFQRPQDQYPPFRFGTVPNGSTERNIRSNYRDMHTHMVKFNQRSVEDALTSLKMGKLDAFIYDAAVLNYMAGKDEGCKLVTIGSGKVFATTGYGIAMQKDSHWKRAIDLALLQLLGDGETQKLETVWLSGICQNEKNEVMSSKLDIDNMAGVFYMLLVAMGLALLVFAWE
Chain of GluN1/GluN2AC1/GluN2CC2(NK) (Q00959 23-1464, other chains not shown): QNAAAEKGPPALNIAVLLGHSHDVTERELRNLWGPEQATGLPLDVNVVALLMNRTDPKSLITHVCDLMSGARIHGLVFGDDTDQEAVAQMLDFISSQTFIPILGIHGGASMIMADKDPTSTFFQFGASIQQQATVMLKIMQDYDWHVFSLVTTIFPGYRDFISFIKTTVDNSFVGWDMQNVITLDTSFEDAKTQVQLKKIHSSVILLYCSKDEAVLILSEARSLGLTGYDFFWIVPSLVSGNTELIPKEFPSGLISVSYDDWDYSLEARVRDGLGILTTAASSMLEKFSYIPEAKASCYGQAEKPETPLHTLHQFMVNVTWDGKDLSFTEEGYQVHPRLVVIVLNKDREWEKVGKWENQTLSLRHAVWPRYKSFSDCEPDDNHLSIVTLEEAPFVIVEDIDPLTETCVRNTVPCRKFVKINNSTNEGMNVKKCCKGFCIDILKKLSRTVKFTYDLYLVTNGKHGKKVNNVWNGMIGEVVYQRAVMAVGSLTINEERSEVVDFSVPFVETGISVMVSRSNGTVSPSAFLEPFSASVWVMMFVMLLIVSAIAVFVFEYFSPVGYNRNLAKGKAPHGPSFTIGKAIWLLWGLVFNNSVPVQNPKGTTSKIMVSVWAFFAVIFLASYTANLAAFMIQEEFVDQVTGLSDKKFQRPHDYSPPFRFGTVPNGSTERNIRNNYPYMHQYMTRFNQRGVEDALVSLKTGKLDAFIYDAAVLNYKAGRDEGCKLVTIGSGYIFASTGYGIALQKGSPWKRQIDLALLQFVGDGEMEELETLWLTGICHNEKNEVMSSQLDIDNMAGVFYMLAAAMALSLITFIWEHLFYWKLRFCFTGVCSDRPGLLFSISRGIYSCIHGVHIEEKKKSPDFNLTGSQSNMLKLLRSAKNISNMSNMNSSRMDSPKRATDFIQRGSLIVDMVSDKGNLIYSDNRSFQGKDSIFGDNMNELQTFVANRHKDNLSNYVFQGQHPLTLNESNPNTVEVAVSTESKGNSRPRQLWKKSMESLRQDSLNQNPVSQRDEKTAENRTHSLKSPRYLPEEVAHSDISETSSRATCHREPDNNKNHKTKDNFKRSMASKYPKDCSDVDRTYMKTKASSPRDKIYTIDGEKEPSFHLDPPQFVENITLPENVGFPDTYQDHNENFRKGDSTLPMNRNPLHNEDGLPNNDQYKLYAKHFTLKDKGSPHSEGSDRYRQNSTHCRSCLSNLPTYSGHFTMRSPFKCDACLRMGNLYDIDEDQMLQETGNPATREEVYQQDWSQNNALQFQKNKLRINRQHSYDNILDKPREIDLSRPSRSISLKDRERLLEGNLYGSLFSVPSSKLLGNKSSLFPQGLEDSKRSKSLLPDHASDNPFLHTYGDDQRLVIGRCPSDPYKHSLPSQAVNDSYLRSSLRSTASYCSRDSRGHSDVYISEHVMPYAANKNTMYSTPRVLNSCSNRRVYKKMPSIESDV

NC(CCCP(=O)(O)O)C(=O)O (racemic) [DL-APV, D,L-2-amino-5-phosphonovalerate]
current response, % of control [1]: 3.4±0.7%

COc1ccc(OCC2c3cc(OC)c(OC)cc3CCN2C(=O)c2cccc(Cl)c2)cc1 (stereo not shown) [CIQ]
NMDAR-mediated current, % of baseline ([2]; 20 μM CIQ, control (GFP) cortical neurons, n=4): 96±4.6%
NMDAR-mediated current, % of control ([3]; 20 μM CIQ, GluN2C-transfected neurons, n=5): 145±9.4%
NMDAR current response in the presence of ifenprodil, % of baseline ([3]; CIQ, 3 μM ifenprodil, GluN2C-transfected neurons, n=4): 131±5%
granule cell response to pressure-applied NMDA, % of DCS ([4]; 20 μM CIQ, 30 μM DCS, wild type mice, n=6 animals): 141±6.7%

N[C@@H](CCC(=O)O)C(=O)O [Glutamate]
time constant for glutamate deactivation (τ) [5]: 81 ± 8 ms
time constant for glutamate deactivation (τ) [6]: 477 ± 40 ms

COC(=O)c1ccc(C2C(C(C)=O)=C(O)C(=O)N2CCc2c(C)[nH]c3ccccc23)cc1 (stereo not shown) [PYD-106]
granule cell response to pressure-applied NMDA and glycine, % of control [7]: 164±17%
granule cell response, % of control [8]: 90±7%
NMDAR current response, % of control ([2]; 50 μM PYD-106, GFP control neurons, n=5): 83±0.6%
NMDAR current response in the presence of ifenprodil, % of baseline ([3]; 50 μM PYD-106, 3 μM ifenprodil, GluN2C-transfected neurons, n=5): 72±6%
NMDAR current response, % of control ([3]; 50 μM PYD-106, GluN2C-transfected neurons, n=5): 89±1.6%
granule cell response to pressure-applied NMDA, % of DCS alone ([4]; 50 μM PYD-106, continuous 30 μM DCS, wild type mice, n=8 animals): 84±3.8%
effect on NMDA responses with glycine as the co-agonist ([4]; wild type granule cells, n=3 animals, data not shown): no effect
sensitivity to PYD-106 [9]: insensitive

NCCCNCCCCNCCCN [Spermine]
NMDAR current, % of baseline responses [10]: 142±7.2%

[Zn+2] [Zn^2+]
GluN2AC1/GluN2AC2 fitted response in saturating Zn2+ as percent of control ([11]; pH 6.8, mean ± SEM): 21±1.7 ^c %
GluN2AC1/GluN2AC2 fitted response in saturating Zn2+ as percent of control ([11]; pH 7.3, mean ± SEM): 57±2.0 ^c %
GluN2AC1/GluN2CC2(NK) fitted response in saturating Zn2+ as percent of control ([12]; pH 6.8, 0.1 mM Mg2+): 27±1.6 ^c %
GluN2AC1/GluN2CC2(NK) fitted response in saturating Zn2+ as percent of control ([12]; pH 7.3, 0.1 mM Mg2+): 57±0.4 ^c %
IC50 ([12]; pH 6.8, 0.1 mM Mg2+): 19 nM
IC50 ([12]; pH 7.3, 0.1 mM Mg2+): 45 nM
